From US20240301023A1 (priority 2020, published 2024)
Like-named read-outs stand apart in the source and are kept apart here. Square brackets hold non-standard residues; d marks the D form. Ends that are not written are not given here. Peptide text beside a SMILES is read from it. Phe(4-NO2) = N[C@@H](Cc1ccc([N+](=O)[O-])cc1)C(=O)O; Phe(4-Cl) = N[C@@H](Cc1ccc(Cl)cc1)C(=O)O; Phe(4-F) = N[C@@H](Cc1ccc(F)cc1)C(=O)O; NMeR = CN[C@@H](CCCNC(=N)N)C(=O)O; Aoc = NCCCCCCCC(=O)O; Sar = CNCC(=O)O

Assays:
[1] = target: Kappa opioid receptor (KOR) (Homo sapiens, UniProt P41145); test: cell-based; format: cell-based; conditions: for EC50: read-out: Activity (EC50, nM) KOR
Mu opioid receptor (MOR) = Mu opioid receptor (MOR) (Homo sapiens, UniProt P35372); test: cell-based; format: cell-based
[2] = target: Delta opioid receptor (DOR) (Homo sapiens, UniProt P41143); test: cell-based; format: cell-based
Stability in rat plasma = format: in vitro ADME; conditions: 37° C., 100 μM peptide; for half-life at 100 µM: both sexes, Wistar
Experimental: Stability in plasma was assessed in rat plasma. Plasma was collected in-house from adult mixed-gender Wistar rats, prepared using 2% EDTA as per standard practice. Peptides were added to the rat plasma samples at 37° C. in a water bath with final concentrations of 100 μM (1:9 peptide in water:plasma). The assay was then carried out in the same manner as the assay in bovine trypsin.

[3] = target: T1, bovine pancreatic trypsin (Bos taurus, UniProt P00760); test: Stability in bovine trypsin; format: in vitro ADME; conditions: bovine pancreatic trypsin 2.5 μg/mL, NH4HCO3 buffer pH 8-8.5, 37° C., 100 μM peptide; for half-life: isolated enzyme trypsin; for half-life at 100 µM: bovine pancreatic trypsin solution
T1 construct: from tissue; host or cells: bovine pancreas
T1 sequence (P00760 24-246): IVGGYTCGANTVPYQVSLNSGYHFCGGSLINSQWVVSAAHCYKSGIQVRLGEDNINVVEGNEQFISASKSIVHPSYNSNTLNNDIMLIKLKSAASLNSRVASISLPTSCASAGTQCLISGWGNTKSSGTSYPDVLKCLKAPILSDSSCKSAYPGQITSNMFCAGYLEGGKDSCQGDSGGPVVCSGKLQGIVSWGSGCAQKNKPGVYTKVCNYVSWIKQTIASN
Experimental: The stability of the peptides was analysed in typsin, plasma and water. Stability of linear peptides is generally low due to rapid degradation by endogenous peptidases and proteases. While stability in bodily fluids is important, absolute stability may not be prudent or desirable due to potential build-up in vivo leading to adverse side effects, and/or hazards to the environment and recirculation of exceptionally stable compounds in waterways. Thus, compounds that are extremely stable in either plasma or typsin are not generally considered “drug-like”.
Stability in bovine trypsin was analysed for SEQ ID Nos. 2 to 7 and 11 to 17. Peptides were added to trypsin solution (bovine pancreatic trypsin 2.5 μg/mL in NH4HCO3 buffer, pH approximately 8-8.5, 37° C.) in a water bath with final concentrations of 100 μM peptide. A 50 μL sample was taken immediately and precipitated in 150 μL of cold acetonitrile (9:1 acetonitrile:water) This sample became the baseline, or t=0 min sample. The trypsin peptide mixture was immediately returned to the water bath and subsequent 50 μL samples were taken at 5, 10, 15, 30, 60 and 120 min. At each time point, the 50 μL sample was collected and immediately added to cold acetonitrile (ACN). Each sample was vortexed for 30 sec and then centrifuged at room temperature (RT) (13K rpm, 5 min). 150 μL of the supernatant was taken and directly place in a glass HPLC vial for LCMS analysis.

KOR = KOR (Homo sapiens, UniProt P41145); test: cell-based; format: cell-based
KOPr = KOPr (Homo sapiens, UniProt P41145); format: cell-based
[4] = read-out: Activity (EC50, nM) MOR
[5] = read-out: Activity (EC50, nM) DOR

Sequence of Kappa opioid receptor (KOR) (P41145 whole entry): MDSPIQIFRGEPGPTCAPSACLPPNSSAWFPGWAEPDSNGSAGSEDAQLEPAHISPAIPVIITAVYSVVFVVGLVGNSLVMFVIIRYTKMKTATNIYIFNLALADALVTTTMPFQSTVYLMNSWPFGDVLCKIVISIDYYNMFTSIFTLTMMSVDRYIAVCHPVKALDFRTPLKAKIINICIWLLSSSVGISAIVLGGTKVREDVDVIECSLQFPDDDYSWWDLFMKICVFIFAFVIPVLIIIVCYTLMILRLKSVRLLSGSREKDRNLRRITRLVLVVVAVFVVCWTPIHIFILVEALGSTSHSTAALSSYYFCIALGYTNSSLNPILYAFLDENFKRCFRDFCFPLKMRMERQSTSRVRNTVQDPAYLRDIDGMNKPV
Sequence of Mu opioid receptor (MOR) (P35372 whole entry): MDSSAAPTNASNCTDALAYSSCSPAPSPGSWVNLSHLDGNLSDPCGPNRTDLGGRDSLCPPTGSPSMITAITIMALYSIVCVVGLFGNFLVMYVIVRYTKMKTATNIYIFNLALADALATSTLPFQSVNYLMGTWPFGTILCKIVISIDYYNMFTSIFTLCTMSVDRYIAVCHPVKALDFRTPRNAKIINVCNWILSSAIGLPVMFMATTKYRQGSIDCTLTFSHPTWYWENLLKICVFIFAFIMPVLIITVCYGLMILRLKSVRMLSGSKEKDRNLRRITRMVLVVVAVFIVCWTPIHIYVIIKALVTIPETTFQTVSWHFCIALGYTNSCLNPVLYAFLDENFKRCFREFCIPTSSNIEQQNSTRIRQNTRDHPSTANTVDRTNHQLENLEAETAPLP
Sequence of Delta opioid receptor (DOR) (P41143 whole entry): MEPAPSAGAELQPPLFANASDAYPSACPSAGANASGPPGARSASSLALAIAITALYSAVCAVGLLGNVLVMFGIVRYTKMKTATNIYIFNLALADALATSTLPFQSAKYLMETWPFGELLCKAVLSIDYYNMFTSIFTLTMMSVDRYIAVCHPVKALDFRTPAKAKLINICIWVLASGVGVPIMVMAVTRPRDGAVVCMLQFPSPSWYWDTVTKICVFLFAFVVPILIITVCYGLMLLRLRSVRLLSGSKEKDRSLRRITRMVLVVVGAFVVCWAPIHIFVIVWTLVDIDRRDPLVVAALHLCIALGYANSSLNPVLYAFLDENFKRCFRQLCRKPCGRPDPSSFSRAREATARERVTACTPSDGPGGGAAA
Sequence of KOPr (P41145 whole entry): as the sequence (P41145 whole entry) above
Sequence of KOR (P41145 whole entry): as above

| Compound | cAMP assay KOR 1 μM [1] | cAMP assay MOR 1 μM (Mu opioid receptor (MOR)) | cAMP assay DOR 1 μM [2] | half-life at 100 µM (Stability in rat plasma) [h] | cAMP assay KOR 10 μM [1] | cAMP assay MOR 10 μM (Mu opioid receptor (MOR)) | cAMP assay DOR 10 μM [2] | half-life at 100 µM [3] [h] | other results |
| --- | --- | --- | --- | --- | --- | --- | --- | --- | --- |
| 2-NH2-Phe-Phe-Leu-Gly-Arg-Arg (FFLGRR; also: 2-NH2 (N-terminal amino modification) on Phe, placement unclear) [SEQ ID NO. 36, reference compound] | no measurable potency | no measurable potency | no measurable potency | – | – | – | – | – | – |
| CC(C)C[C@H](NC(=O)[C@H](Cc1ccccc1)NC(=O)CN(C)C(=O)[C@@H](N)Cc1ccc(O)cc1)C(=O)N[C@@H](CCCNC(=N)N)C(=O)N[C@H](CCCNC(=N)N)C(N)=O [SEQ ID NO. 3, NH2-Tyr-Sar-Phe-Leu-Arg-DArg-NH2] (H-Y[Sar]FLR[dR]-NH2) | 27.24 | −0.68 | −2.27 | 1.2 | 43.58 | 2.17 | 2.24 | – | Half Life Trypsin [3]: 0.227 h |
| CC(C)C[C@H](NC(=O)[C@H](Cc1ccc([N+](=O)[O-])cc1)NC(=O)CN(C)C(=O)[C@@H](N)Cc1ccc(O)cc1)C(=O)N[C@H](CCCNC(=N)N)C(=O)N[C@@H](CCCNC(=N)N)C(N)=O [SEQ ID NO. 5, NH2-Tyr-Sar-(4-NO2)Phe-Leu-DArg-Arg-NH2] (H-Y[Sar][Phe(4-NO2)]L[dR]R-NH2) | 33.44 | −0.05 | 0.05 | – | 43.14 | 4.32 | 2.02 | – | half-life (Stability in rat plasma): 0.478 h; Half Life Trypsin [3]: 54.167 h |
| CC(C)C[C@H](NC(=O)[C@H](Cc1ccccc1)NC(=O)CN(C)C(=O)[C@@H](N)Cc1ccc(O)cc1)C(=O)N[C@H](CCCNC(=N)N)C(=O)N[C@@H](CCCNC(=N)N)C(N)=O [SEQ ID NO. 6, NH2-Tyr-Sar-Phe-Leu-DArg-Arg-NH2] (H-Y[Sar]FL[dR]R-NH2) | 14.22 | 1.04 | −0.03 | – | 35.13 | 7.84 | 2.25 | – | half-life [3]: 21.1 h |
| CC(C)C[C@H](NC(=O)[C@H](Cc1ccccc1)NC(=O)CN(C)C(=O)[C@@H](N)Cc1ccc(O)cc1)C(=O)N[C@H](CCCNC(=N)N)C(=O)N[C@H](CCCNC(=N)N)C(N)=O [SEQ ID NO. 7, NH2-Tyr-Sar-Phe-Leu-DArg-DArg-NH2] (H-Y[Sar]FL[dR][dR]-NH2) | 18.27 | 0.13 | −0.68 | – | 36.03 | 4.19 | 2.53 | – | half-life [3]: 9.78 h |
| CC(C)C[C@H](NC(=O)[C@H](Cc1ccc(Cl)cc1)NC(=O)CN(C)C(=O)[C@@H](N)Cc1ccc(O)cc1)C(=O)N[C@@H](CCCNC(=N)N)C(=O)N[C@H](CCCNC(=N)N)C(N)=O [SEQ ID NO. 11, NH2-Tyr-Sar-(4-Cl)Phe-Leu-Arg-DArg-NH2] (H-Y[Sar][Phe(4-Cl)]LR[dR]-NH2) | 27.7 | −0.86 | −1.18 | – | 33.99 | 1.37 | 4.27 | 0.257 | – |
| CC(C)C[C@H](NC(=O)[C@H](Cc1ccc(F)cc1)NC(=O)CN(C)C(=O)[C@@H](N)Cc1ccc(O)cc1)C(=O)N[C@@H](CCCNC(=N)N)C(=O)N[C@H](CCCNC(=N)N)C(N)=O [SEQ ID NO. 12, NH2-Tyr-Sar-(4-F)Phe-Leu-Arg-DArg-NH2] (H-Y[Sar][Phe(4-F)]LR[dR]-NH2) | – | – | – | 0.532 | – | – | – | 0.228 | EC50 [1]: 6.7 nM; EC50 (Mu opioid receptor (MOR); [4]): 3450 nM |
| CC(C)C[C@H](NC(=O)[C@H](Cc1ccc(Cl)cc1)NC(=O)CN(C)C(=O)[C@@H](N)Cc1ccc(O)cc1)C(=O)N(C)[C@@H](CCCNC(=N)N)C(=O)N[C@H](CCCNC(=N)N)C(N)=O [SEQ ID NO. 13, NH2-Tyr-Sar-(4-Cl)Phe-Leu-NMA-DArg-NH2] (H-Y[Sar][Phe(4-Cl)]L[NMeR][dR]-NH2) | – | – | – | 3.99 | – | – | – | 4.6 | EC50 (Mu opioid receptor (MOR)): > 10000 nM; EC50 [2]: > 10000 nM |
| CC(C)C[C@H](NC(=O)[C@H](Cc1ccc(F)cc1)NC(=O)CN(C)C(=O)[C@@H](N)Cc1ccc(O)cc1)C(=O)N(C)[C@@H](CCCNC(=N)N)C(=O)N[C@H](CCCNC(=N)N)C(N)=O [SEQ ID NO. 14, NH2-Tyr-Sar-(4-F)Phe-Leu-NMA-DArg-NH2] (H-Y[Sar][Phe(4-F)]L[NMeR][dR]-NH2) | – | – | – | 5.4 | – | – | – | 27.1 | EC50 (Mu opioid receptor (MOR); [4]): 4000 nM; EC50 [2, 5]: 1660 nM |
| CC(C)C[C@H](NC(=O)[C@H](Cc1ccc([N+](=O)[O-])cc1)NC(=O)CN(C)C(=O)[C@@H](N)Cc1ccc(O)cc1)C(=O)N(C)[C@@H](CCCNC(=N)N)C(=O)N[C@H](CCCNC(=N)N)C(N)=O [SEQ ID NO. 15, NH2-Tyr-Sar-(4-NO2)Phe-Leu-NMA-DArg-NH2] (H-Y[Sar][Phe(4-NO2)]L[NMeR][dR]-NH2) | – | – | – | – | – | – | – | – | EC50 [2, 5]: 1320 nM |
| CC(C)C[C@H](NC(=O)[C@H](Cc1ccc(Cl)cc1)NC(=O)CN(C)C(=O)[C@@H](N)Cc1ccc(O)cc1)C(=O)N[C@@H](CCCCN)C(=O)N[C@H](CCCNC(=N)N)C(N)=O [SEQ ID NO. 16, NH2-Tyr-Sar-(4-Cl)Phe-Leu-Lys-DArg-NH2] (H-Y[Sar][Phe(4-Cl)]LK[dR]-NH2) | – | – | – | 1.17 | – | – | – | – | Half Life Trypsin [3]: 1.16 h |
| CC(C)C[C@H](NC(=O)[C@H](Cc1ccc(Cl)cc1)NC(=O)CN(C)C(=O)[C@@H](N)Cc1ccc(O)cc1)C(=O)N[C@@H](CCCNC(=N)N)C(=O)N(C)[C@@H](CCCNC(=N)N)C(N)=O [SEQ ID NO. 17, NH2-Tyr-Sar-(4-Cl)Phe-Leu-Arg-NMA-NH2] (H-Y[Sar][Phe(4-Cl)]LR[NMeR]-NH2) | – | – | – | 2.9 | – | – | – | > 16.7 | – |
| CC(C)C[C@H](NC(=O)[C@H](Cc1ccc([N+](=O)[O-])cc1)NC(=O)CN(C)C(=O)[C@@H](N)Cc1ccc(O)cc1)C(=O)N[C@@H](CCCNC(=N)N)C(=O)N(C)[C@@H](CCCNC(=N)N)C(N)=O [SEQ ID NO. 18, NH2-Tyr-Sar-(4-NO2)Phe-Leu-Arg-NMA-NH2] (H-Y[Sar][Phe(4-NO2)]LR[NMeR]-NH2) | – | – | – | – | – | – | – | – | EC50 [1]: 1.77 nM; KOR desensitisation (change of cAMP maximal response after pre-treatment) (KOR): no sign of desensitisation; bias factor (β) relative to U50488H (KOPr): bias towards cAMP; pERK1/2 activity (KOPr): failed to show any pERK activity |
| CC[C@H](C)[C@H](NC(=O)[C@@H](CCCNC(=N)N)NC(=O)[C@H](CCCNC(=N)N)NC(=O)[C@H](CC(C)C)NC(=O)[C@H](Cc1ccc(Cl)cc1)NC(=O)CN(C)C(=O)[C@@H](N)Cc1ccc(O)cc1)C(=O)N[C@@H](CCCNC(=N)N)C(N)=O [SEQ ID NO. 20, NH2-Tyr-Sar-(4-Cl)Phe-Leu-Arg-DArg-Ile-Arg-NH2] | – | – | – | – | – | – | – | – | cAMP activity in the presence of naloxone, KOR cells [1]: significantly inhibited; reduction in maximal response after pre-treatment (KOR; read-out: reduction in maximal response): ~50%; EC50 (Mu opioid receptor (MOR)): > 10000 nM; EC50 [2]: 3580 nM |
| CC[C@H](C)[C@H](NC(=O)[C@@H](CCCNC(=N)N)NC(=O)[C@H](CCCNC(=N)N)NC(=O)[C@H](CC(C)C)NC(=O)[C@H](Cc1ccc(Cl)cc1)NC(=O)CN(C)C(=O)[C@@H](N)Cc1ccc(O)cc1)C(=O)N[C@H](CCCNC(=N)N)C(N)=O [SEQ ID NO. 25, NH2-Tyr-Sar-(4-Cl)Phe-Leu-Arg-DArg-Ile-DArg-NH2] | – | – | – | – | – | – | – | – | EC50 (Mu opioid receptor (MOR)): 1610 nM; EC50 [2]: > 10000 nM |
| CC(C)C[C@H](NC(=O)[C@H](Cc1ccc(Cl)cc1)NC(=O)CN(C)C(=O)[C@@H](N)Cc1ccc(O)cc1)C(=O)N[C@@H](CCCNC(=N)N)C(=O)N[C@H](CCCNC(=N)N)C(=O)NCCCCCCCC(=O)O [SEQ ID NO. 28, NH2-Tyr-Sar-(4-Cl)Phe-Leu-Arg-DArg-C7H14-COOH] (H-Y[Sar][Phe(4-Cl)]LR[dR][Aoc]-OH) | – | – | – | – | – | – | – | – | EC50 (Mu opioid receptor (MOR)): > 10000 nM; EC50 [2]: > 10000 nM |
